Experimental data published in publication PMC5291098, “Molecular mutagenesis of ppGpp: turning a RelA activator into an inhibitor” (Scientific Reports, 2017).
Several values for one entry are separate records, joined by “and”; a condition that tells them apart may be missing. Identical values can stand only once. Entries after “also recorded” stand apart in the source; their conditions may differ. Like-named read-outs stand apart in the source and are kept apart here.

What was measured:
[1] = biological target: T1, E. coli RelA (Escherichia coli, UniProt P0AG20); set-up: method as in PMID 20483622; conditions: read-out: IC50 / concentration for 50% inhibition of E. coli RelA; in the test tube; cited from earlier work
T1 construct: made in house
T1 sequence (P0AG20 whole entry): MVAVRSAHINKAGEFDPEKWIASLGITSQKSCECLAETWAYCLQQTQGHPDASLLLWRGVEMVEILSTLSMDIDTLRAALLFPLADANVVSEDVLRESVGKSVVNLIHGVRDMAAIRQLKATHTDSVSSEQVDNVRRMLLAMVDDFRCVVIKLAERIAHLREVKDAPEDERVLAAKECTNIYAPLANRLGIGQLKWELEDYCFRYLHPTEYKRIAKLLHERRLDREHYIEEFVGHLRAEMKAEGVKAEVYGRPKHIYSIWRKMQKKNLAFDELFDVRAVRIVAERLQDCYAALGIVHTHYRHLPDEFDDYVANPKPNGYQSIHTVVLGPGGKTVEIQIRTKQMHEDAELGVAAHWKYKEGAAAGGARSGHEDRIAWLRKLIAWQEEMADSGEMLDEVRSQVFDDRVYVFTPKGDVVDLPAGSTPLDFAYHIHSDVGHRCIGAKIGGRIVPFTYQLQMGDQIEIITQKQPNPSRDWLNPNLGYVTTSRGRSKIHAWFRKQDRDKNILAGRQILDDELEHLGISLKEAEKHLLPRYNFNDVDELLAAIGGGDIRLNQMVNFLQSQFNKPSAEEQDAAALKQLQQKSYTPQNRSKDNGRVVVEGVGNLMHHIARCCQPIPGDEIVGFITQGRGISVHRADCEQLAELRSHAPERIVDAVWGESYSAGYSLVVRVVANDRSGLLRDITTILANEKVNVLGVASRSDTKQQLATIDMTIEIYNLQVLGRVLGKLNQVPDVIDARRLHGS

[2] = system: T2, E. coli EF-G; assay type: biochemical
T2 construct: made in house
Experimental: (§1) Thin layer chromatography (TLC) analysis of nucleotide mixtures
Both EF-G GTPase reaction and ppGpp synthesis by RelA were followed by TLC analysis followed by scintillation counting according to Mechold and colleagues, with modifications1. Time points from the reaction mixtures (5 μl, see below for details) were quenched by addition 4 μl 70% formic acid supplemented with a cold nucleotide standard used for UV-shadowing (10 mM GDP and 10 mM GTP) and spotted on PEI-TLC plates (Macherey-Nagel). TLC was run in buffer, plates dried, cut into sections guided by UV-shadowing and 3H radioactivity was quantified by scintillation counting in Optisafe-3 (Fisher) scintillation cocktail on Perkin Elmer Tricarb 2810TR counter. Conversion of substrate to product was quantified as described in Shyp et al. (2012)2. […]
GTPase assays with E. coli EF-G
The reaction mixture contained 0.5 μM 70S, 0.1 μM EF-G, in HEPES:Polymix (25 mM Hepes 7.5/ 1 mM DTT / 5 mM Mg2+) pre-incubated for 2 minutes at 37°C prior to addition of 300 μM [3H]GTP substrate (Hartman), after which time points (5 μl) taken, quenched with formic acid and analyzed by TLC (see above). […]

[3] = biological target: T1, E. coli RelA; experiment: Inhibition of [3H]GDP to [3H]ppGpp conversion by E. coli RelA activated by vacant 70S ribosomes and 100 μM ppGpp; assay type: biochemical; conditions: for IC50: 30 nM RelA, 0.5 μM vacant 70S, 100 μM ppGpp; for nHill (Hill coefficient of the titration fit): Supplementary Table 1, 4-parameter logistic model
Experimental: For the initial characterization of compounds, we followed the inhibition of [^3H] GDP conversion to [^3H] ppGpp catalyzed by E. coli RelA in a simplified system in which RelA’s activity was induced by vacant 70S ribosomes and 100 μM of ppGpp[15]. Unlabeled ppGpp was added to reaction mixtures in order to linearize the kinetics of [^3H] ppGpp synthesis due to an activating effect on the RelA enzyme. We used a targeted library of 69 nucleotides belonging to several structural classes: ‘true’ ppGpp analogues; Relacin and its derivatives; pyrrolidine, azetidine, piperidine and acyclic phosphonates. Chemical structures of tested compounds and titrations in the RelA:70S:ppGpp system are presented in Supplementary Table 1.
(§2) Detailed description of experimental procedures can be found in Supplementary Text. Biochemical assays utilize in vitro translation[58] and stringent response[15] systems from E. coli purified components. Experiments were performed in HEPES:Polymix[58] buffer with either 5 (for enzymatically assembled initiation complexes) or 15 mM (for vacant 70 S, as well as non-enzymatically assembled programmed ribosomes) Mg^2+. Expression and purification of E. faecalis RelQ was performed as per Gaca (2015) and colleagues. GTPase and ppGpp synthesis were followed using TLC separation and radiochemical detection of ^3H-labelled nucleotides. Multiple round in vitro transcription assays were performed as per Bernardo et al.[49] with minor modifications. Inhibition efficiency (IC50) was calculated using 4-parameter logistic model (Hill equation) as per Sebaugh[60].
as §1
Both EF-G GTPase reaction and ppGpp synthesis by RelA were followed by TLC analysis followed by scintillation counting according to Mechold and colleagues, with modifications1. Time points from the reaction mixtures (5 μl, see below for details) were quenched by addition 4 μl 70% formic acid supplemented with a cold nucleotide standard used for UV-shadowing (10 mM GDP and 10 mM GTP) and spotted on PEI-TLC plates (Macherey-Nagel). TLC was run in buffer, plates dried, cut into sections guided by UV-shadowing and 3H radioactivity was quantified by scintillation counting in Optisafe-3 (Fisher) scintillation cocktail on Perkin Elmer Tricarb 2810TR counter. Conversion of substrate to product was quantified as described in Shyp et al. (2012)2.
Enzymatic assays with E. coli RelA
Screening: all experiments were performed in HEPES:Polymix, Mg2+ of 5 mM, 37 […]
μM ppGpp was pre-incubated at 37° C for 2 min and then reaction started by addition of 1 mM ATP, time points (5 μl) taken, quenched with formic acid and analyzed by TLC. Inhibition efficiency (IC50) was calculated using 4-parameter logistic model (Hill equation) as per Sebaugh (2011)3. […]

[4] = biological target: T3, E. faecalis SAS RelQ (RelQEf) (Enterococcus faecalis, UniProt Q830U9); experiment: Inhibition of E. faecalis SAS RelQ ppGpp synthesis; assay type: biochemical; conditions: concentrations up to 1 mM
T3 sequence (Q830U9 entry or part of it): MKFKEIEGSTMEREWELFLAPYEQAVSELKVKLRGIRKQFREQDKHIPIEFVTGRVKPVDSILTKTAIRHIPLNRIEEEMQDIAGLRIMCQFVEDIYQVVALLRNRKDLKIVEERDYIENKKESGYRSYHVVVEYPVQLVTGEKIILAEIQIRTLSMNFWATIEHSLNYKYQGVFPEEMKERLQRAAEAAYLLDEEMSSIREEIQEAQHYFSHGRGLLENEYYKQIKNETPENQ
Excerpt: In E. coli, ppGpp is synthesized by the multi-domain RSHs RelA and SpoT, however, numerous single-domain RSHs – Small Alarmone Synthetases (SAS) – are widely distributed across bacterial taxa[3]. […] Therefore we tested the effects of DR-4250, DR-M014 and DR-5163 on RelQEf activity (Supplementary Figure 2).
as §2
RelQ activity0.4 RelQ activity0.4 RelQ activity0.4
Supplementary Figure 2 | Inhibition of E. faecalis SAS RelQ by DR-4250, DR-
M014 and DR-5163 is inefficient. The reaction mixture contains 0.25 µM RelQEf,
300 µM [3H] GDP, 0.5 mg/ml BSA, 100 µM ppGpp, 1 mM ATP in Hepes:Polymix at […]

[5] = system: ΔywaCΔyjbM B. subtilis; experiment: Growth of ΔywaCΔyjbM B. subtilis in valine drop-out S7 medium (functional test for Rel inhibition); assay type: cell-based, Bacillus subtilis; conditions: up to 1 mM (0 to 1000 µM)
Excerpt: Finally, we tested the three of our most promising inhibitors (DR-4250, DR-M014 and DR-5163) for RSH inhibition in bacterial culture. For this we used the Gram-positive bacterium B. subtilis due to its better uptake of compounds as compared to Gram-negative species such as E. coli[50]. The functional test for RSH inhibition relied on the auxotrophy of (p)ppGpp-deficient (ppGpp^0) B. subtilis for methionine and branched-chain amino acids valine, leucine and isoleucine. The B. subtilis RSH repertoire consists of one multi-domain ribosome-associated enzyme Rel and two SAS, YwaC and YjbM[3][52]. Because the SAS RelQEf is refractory to inhibition by our test compounds (Supplementary Figure 2), we used a B. subtilis strain lacking SASs (ΔywaCΔyjbM), in which the sole source of (p)ppGpp is Rel[53]. Defined S7 medium[54] lacking valine supports the growth of ΔywaCΔyjbM B. subtilis, but not the ppGpp^0 stain (Supplementary Figure 5). […] This is indicative of the test compounds failing to inhibit Rel and thereby rendering the strain phenotypically ppGpp^0 (Supplementary Figure 5). A lack of cellular uptake is a likely explanation. […]
Growth assays with Bacillus subtilis BSB1 wild type strain
SAS deletion and ppGpp0 strain of B. subtilis5 were grown in S7 liquid medium6 except for amino acid requirements, which were met as described elsewhere 7. On 96-well plate, 90 µl of B subtilis starter culture was mixed with 10 µL of compound dilution (in 5 mM Tris pH 7.2) so that final OD600 was 0.025 (l = 1 cm).
Following incubation was without shaking at 37°C and growth was monitored with Tecan Infinite M200 at OD600 (raw OD600 values are reported). B. subtilis starter culture was prepared as follows. Late exponential phase cells in S7, with full set of amino acids, were diluted ≈10-fold in S7 lacking either valine or lysine so that, after addition of 8% DMSO, OD600 was 0.25. Next, cell suspensions were aliquoted, frozen in liquid nitrogen, and stored at -80°C. Just before the experiment, cells were thawed on ice and appropriate amount of media was […]
DywaC DyjbM BSB1 B. subtilis ppGpp0. BSB1 B. subtilis wild type strain as grown on S7 synthetic media8 drop-out media lacking valine which abolishes the growth of ppGpp0 (Drel DywaC DyjbM) strain due to valine auxotrophy (dashed line). […]
inhibit the Rel and render the strain ppGpp0.

[6] = biological target: T3, E. faecalis SAS RelQ (RelQEf); conditions: found earlier; cited from earlier work
[7] = system: T4, E. coli σ70-RNAP holoenzyme; experiment: Multiple round in vitro transcription by σ70-RNAP (rrnB P1 and rna1 promoters); assay type: biochemical, Escherichia coli; conditions: concentrations up to 5 mM; regardless of presence or absence of 2 μM DksA and 100 μM ppGpp
T4 construct: purchased Epicentre
Experimental: Next, we tested their effects on RNAP. […] We used multiple round in vitro transcription driven from the rrnB P1, a well-characterized ppGpp/DksA inhibited promoter, as described earlier[49]. The assays were performed in the presence and absence of 2 μM DksA and/or 100 μM ppGpp (Fig. 5a).
Effect of inhibitors on rrnB P1 (−66 to +50) promoter transcription by RNAP. Graphs depicting inhibitor (0, 0.025, 0.05, 0.15, 0.4 and 0.6 mM) titrations performed at 30 °C in T-buffer with 0.5 nM template (σ^70-rrnB P1 promoter (pRLG6214)) and 5 nM σ^70-RNAP, in presence or absence of 100 μM ppGpp and/or 2 μM DksA. Error bars represent standard deviations of linear regression estimates, each experiment was performed at least three times.
The assays were performed as per Bernardo et al. (2006)4 with minor modifications. Reactions were carried out in T-buffer (50 mM Tris-HCl pH 7.5, 100 mM NaCl, 10 mM MgCl2, 1 mM dithiothreitol, 0.1 mM EDTA and 0.275 mg of BSA per ml) at 30°C. Inhibitors were titrated to final concentrations of 0, 0.025, 0.05, 0.15, 0.4 and 0.6 mM. E. coli s 70-RNAP holoenzyme (Epicentre, final concentration 5 nM) and template plasmid DNA containing s70-rrnB P1 promoter, (pRLG6214, final concentration 0.5 nM) was used for all experiments. Before initiation of transcription, E. coli s70-RNAP holoenzyme and T buffer were incubated at 30°C for 5 min. Above mix was added to predispensed mixture of inhibitor and the template plasmid DNA containing s70-rrnB P1 promoter (pRLG6214), incubated for further 20 min to initiate open complex formation. 2.5 µl of a mixture of ATP (ﬁnal concentration 0.5 mM), GTP and CTP (ﬁnal concentration 0.2 mM each), UTP (ﬁnal concentration 0.08 mM) and [a-32P]-UTP (5 µCi at > 3000 Ci/mmol, PerkinElmer) was added to initiate transcription by RNAP. After 7 min, 1 µl heparin (0.125 mg/ml ﬁnal concentration) was added to the reaction mixture to prevent re-initiation and further incubated for 5 min to allow completion of initiated transcripts. Transcription was terminated by addition of formamide loading buffer and samples were electrophoresed on a 7M urea-5% polyacrylamide gel and quantified by phosphorimaging.

[8] = system: Bacillus subtilis; set-up: method as in PMID 20483622; conditions: mM-range concentrations; cited from earlier work
[9] = system: transcription or translation in E. coli reconstituted systems; set-up: method as in PMID 7047215; conditions: cited from earlier work
[10] = biological target: 70S initiation complexes programmed with mRNA(MF) (E. coli) (UniProt P0AG67); experiment: co-sedimentation; spin-down assay: 2 uM RelA, 1 uM 70S initiation complexes programmed with mRNA(MF), with or without 3 uM deacylated tRNA-Phe and 500 uM DR-4250 or DR-M014; 37 C for 15 min; 30% sucrose cushion, 70,000 r.p.m., 25 min, 12 C; pellets on 10% SDS-PAGE; the stoichiometry is told for the sample with A-site deacylated tRNA-Phe
[11] = 0.3 mM [3H]GDP, 1 mM ATP, read-out: IC50

Sequence of Escherichia coli RelA (P0AG20 whole entry): as the sequence (P0AG20 whole entry) above

Q: With `Nc1nc2c(ncn2[C@H]2C[C@H](OP(=O)(O)CP(=O)(O)O)[C@@H](COP(=O)(O)CP(=O)(O)O)O2)c(=O)[nH]1` [(10), 2′-deoxyguanosine-3′-5′-di(methylene bisphosphonate)] as the molecule, how does the IC50 [1] read?
A: The IC50 was ~1000 µM and 1000 µM.

Q: For `Nc1nc2c(ncn2CCNC(=O)P(=O)(O)O)c(=O)[nH]1` [DR-5163], which “Inhibitory effect on EF-G GTPase activity (in words)” value ([2]; up to 1 mM) is on record?
A: The value was “no inhibitory effect”.

Q: And the IC50 [3, 11]?
A: The IC50 was 0.245 ± 0.039 mM.

Q: And the IC50 ([3]; 5 mM Mg2+, 37 °C, no unit beside the value, titration axis in mM, read-out: IC50 (Supplementary Table 1, example titration))?
A: Its IC50 is 0.25 ± 0.05 mM.

Q: What about the “nHill (Hill coefficient of the titration fit)” value [3] of the same molecule?
A: Its value is 1.3 ± 0.26.

Q: And the “Effect on RelQEf activity (in words)” value [4]?
A: The value was “inefficient; also recorded: almost inactive”.

Q: What about the “Effect on growth of ΔywaCΔyjbM B. subtilis (in words)” value [5] of the same molecule?
A: Its value is “did not affect bacterial growth; also recorded: does not affect the growth”.

Q: Which results are given for `CC(C)C(=O)Nc1nc2c(ncn2[C@H]2C[C@H](OC(=O)NCC(=O)NCC(=O)O)[C@@H](COC(=O)NCC(=O)NCC(=O)O)O2)c(=O)[nH]1` [Relacin, reference compound]?
A: Inhibitory effect on EF-G GTPase activity (in words) ([2]; up to 5 mM): no inhibitory effect; Sensitivity of RelQEf to Relacin (in words) [6]: virtually insensitive; IC50 [3, 11]: 0.84 ± 0.2 mM; nHill (Hill coefficient of the titration fit) [3]: 1.8 ± 0.001; Effect on rrnB P1 transcription by RNAP (in words) [7]: mild inhibitory effect; Biological effect on Bacillus subtilis (in words) [8]: has a biological effect

Q: For `Nc1ncnc2c1ncn2C1OC(COP(=O)(O)OP(=O)(O)O)C(OP(=O)(O)OP(=O)(O)O)C1O` (stereo not shown) [ppApp], which “Inhibitory effect on EF-G GTPase activity (in words)” value ([2]; up to 100 μM) is on record?
A: The value was “no inhibitory effect”.

Q: And the IC50 [3, 11]?
A: Its IC50 is 0.0245 ± 0.0035 mM.

Q: What about the “nHill (Hill coefficient of the titration fit)” value [3] of the same molecule?
A: The value was 0.7 ± 0.1.

Q: And the “Activation of RelA's synthetic activity (in words)” value ([3]; ppGpp up to 100 μM, ppApp 50 µM-1 mM, thio-ppGpp 100 µM (Supplementary Figure 1))?
A: Its value is “do not activate; also recorded: neither ppApp nor 6-thio-ppGpp activate”.

Q: And the “Inhibitory effect on transcription or translation (in words)” value [9]?
A: The value was “does not have a pronounced inhibitory effect”.

Q: With “Escherichia coli RelA (from UniProt P0AG20 1-744) (enzyme)” as the molecule, how does the stoichiometry N [10] read?
A: The stoichiometry N was 1.
